± gives the standard deviation of the averaged measurements.
Each compound was assayed on HCC-38 (assay: relative cell number vs DMSO control (72 h) (% of DMSO); higher = less growth inhibition (more cells)). Details: sgRNA knockout: sgNT, 10 nM.
Description: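 QMAP-Seq: a pool of 5 breast cancer cell lines (ZR-75-1, SKBR3, HCC-38, MDA-MB-231, BT-20), each carrying 12 doxycycline-inducible Cas9 sgRNA perturbations (11 knockouts plus non-targeting sgNT), was treated with compounds for 72 h at four 10-fold doses (10 nM-10 uM or 1 nM-1 uM range). Barcodes were amplified and sequenced, and cell number was interpolated from 293T spike-in standard curves. The result is expressed as % of the median of DMSO wells. Two biological replicates.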

Point of comparison: `C=CCn1c(=O)c2cnc(Nc3ccc(N4CCN(C)CC4)cc3)nc2n1-c1cccc(C(C)(C)O)n1` [MK1775], relative cell number 97.2 ± 20. Against it:
- CN1CCc2c(c3ccccc3n2Cc2ccc(C(=O)NO)cc2)C1 [TubastatinA] — within error, 122 ± 20
- CCOc1ccccc1-n1c(C(C)N2CCN(C(=O)COc3ccc(Cl)cc3)CC2)nc2ccccc2c1=O (stereo not given) [Erastin] — within error, 97.1 ± 7.7
- CN1C(=O)C(Cc2c[nH]c3ccccc23)NC1=S (stereo not given) [Necrostatin1] — within error, 110 ± 12
- O=C1NC(=O)[C@@H](c2cn3c4c(cccc24)CCC3)[C@@H]1c1c[nH]c2ccccc12 [Tivantinib] — within error, 89.1 ± 20
- CCn1c(=O)c2c(nc(/C=C/c3ccc(OC)c(OC)c3)n2C)n(CC)c1=O [Istradefylline] — within error, 88.28 ± 0.69
- COc1ccc(-c2ccc3c(N4CCOCC4)nc(N4C[C@@H](C)O[C@@H](C)C4)nc3n2)cc1CO — within error, 100 ± 8.5
- C[C@]12CC[C@@H]3c4ccc(O)cc4C[C@@H](CCCCCCCCC[S+]([O-])CCCC(F)(F)C(F)(F)F)[C@H]3[C@@H]1CC[C@@H]2O (stereo not given in full) [Fulvestrant] — within error, 83.8 ± 12
- COC(=O)Nc1nc2cc(C(=O)c3ccccc3)ccc2[nH]1 [Mebendazole] — the same, 97.2 ± 18
- O=C(NOCC(O)CO)c1cc(Br)c(F)c(F)c1Nc1ccc(I)cc1F (stereo not given) — within error, 85.4 ± 6.8
- OCc1ccc(-c2ccc(-c3ccc(CO)s3)o2)s1 — within error, 118 ± 10
- CC(=O)Nc1cccc(-n2c(=O)n(C3CC3)c(=O)c3c(Nc4ccc(I)cc4F)n(C)c(=O)c(C)c32)c1 [Trametinib] — within error, 100 ± 5.3
- S=c1nc[nH]c2nc[nH]c12 [6-Mercaptopurine] — within error, 99.6 ± 7

Same assay, conditions: sgRNA knockout: sgNT, 100 nM

Point of comparison: `CC(=O)Nc1nc(C)c(S(=O)(=O)Nc2ccc(C(O)(C(F)(F)F)C(F)(F)F)cc2)s1` [SR1001], relative cell number 105 ± 5.6. Against it:
- Cc1cnc(Nc2ccc(OCCN3CCCC3)cc2)nc1Nc1cccc(S(=O)(=O)NC(C)(C)C)c1 — lower, 90.301 ± 0.055
- CN(C)CC[C@H](CSc1ccccc1)Nc1ccc(S(=O)(=O)NC(=O)c2ccc(N3CCN(Cc4ccccc4-c4ccc(Cl)cc4)CC3)cc2)cc1[N+](=O)[O-] [ABT737] — lower, 84 ± 12
- O=P1(N(CCCl)CCCl)NCCCO1 (stereo not given) [Cyclophosphamide] — lower, 86.8 ± 5.3
- CCOC(=O)[C@@]1(CCCCCCOc2ccc(Cl)cc2)CO1 [Etomoxir] — lower, 94.52 ± 0.29
- Cc1ccc(Nc2nccc(N(C)c3ccc4c(C)n(C)nc4c3)n2)cc1S(N)(=O)=O [Pazopanib] — lower, 95.2 ± 1.4
- CC(C)C[C@H](NC(=O)[C@H](CCc1ccccc1)NC(=O)CN1CCOCC1)C(=O)N[C@@H](Cc1ccccc1)C(=O)N[C@@H](CC(C)C)C(=O)[C@@]1(C)CO1 [Carfilzomib] — lower, 8.48 ± 4
- N.N.[Cl][Pt][Cl] [Cisplatin] — lower, 79.6 ± 12
- Cc1cc2c(C(C)C)c(O)c(O)c(C=O)c2c(O)c1-c1c(C)cc2c(C(C)C)c(O)c(O)c(C=O)c2c1O [Gossypol] — within error, 91.6 ± 12
- COc1cccc2c1C(=O)c1c(O)c3c(c(O)c1C2=O)C[C@@](O)(C(=O)CO)C[C@@H]3O[C@H]1C[C@H](N)[C@H](O)[C@H](C)O1 [Doxorubicin] — lower, 38.3 ± 2.5
- CCC(C)SSc1ncc[nH]1 (stereo not given) [PX12] — within error, 101 ± 15
- CN1CCc2c(c3ccccc3n2Cc2ccc(C(=O)NO)cc2)C1 [TubastatinA] — within error, 88.7 ± 16
- CCOc1ccccc1-n1c(C(C)N2CCN(C(=O)COc3ccc(Cl)cc3)CC2)nc2ccccc2c1=O (stereo not given) [Erastin] — within error, 103 ± 9.8
- CN1C(=O)C(Cc2c[nH]c3ccccc23)NC1=S (stereo not given) [Necrostatin1] — lower, 92.5 ± 3.2
- O=C1NC(=O)[C@@H](c2cn3c4c(cccc24)CCC3)[C@@H]1c1c[nH]c2ccccc12 [Tivantinib] — lower, 84.9 ± 14
- CCn1c(=O)c2c(nc(/C=C/c3ccc(OC)c(OC)c3)n2C)n(CC)c1=O [Istradefylline] — within error, 99.3 ± 24
- COc1ccc(-c2ccc3c(N4CCOCC4)nc(N4C[C@@H](C)O[C@@H](C)C4)nc3n2)cc1CO — within error, 115 ± 5.9
- C[C@]12CC[C@@H]3c4ccc(O)cc4C[C@@H](CCCCCCCCC[S+]([O-])CCCC(F)(F)C(F)(F)F)[C@H]3[C@@H]1CC[C@@H]2O (stereo not given in full) [Fulvestrant] — within error, 102 ± 2
- COC(=O)Nc1nc2cc(C(=O)c3ccccc3)ccc2[nH]1 [Mebendazole] — lower, 83.2 ± 4.6
- O=C(NOCC(O)CO)c1cc(Br)c(F)c(F)c1Nc1ccc(I)cc1F (stereo not given) — lower, 83.2 ± 6.4
- OCc1ccc(-c2ccc(-c3ccc(CO)s3)o2)s1 — higher, 119 ± 4.3
- CC(=O)Nc1cccc(-n2c(=O)n(C3CC3)c(=O)c3c(Nc4ccc(I)cc4F)n(C)c(=O)c(C)c32)c1 [Trametinib] — lower, 78 ± 5.7
- C=CCn1c(=O)c2cnc(Nc3ccc(N4CCN(C)CC4)cc3)nc2n1-c1cccc(C(C)(C)O)n1 [MK1775] — lower, 76.6 ± 6.7
- S=c1nc[nH]c2nc[nH]c12 [6-Mercaptopurine] — within error, 99.7 ± 5.1

Same assay, conditions: sgRNA knockout: sgNT, 1000 nM

Point of comparison: `O=C1NC(=O)[C@@H](c2cn3c4c(cccc24)CCC3)[C@@H]1c1c[nH]c2ccccc12` [Tivantinib], relative cell number 39.6 ± 4.2. Against it:
- Cc1cnc(Nc2ccc(OCCN3CCCC3)cc2)nc1Nc1cccc(S(=O)(=O)NC(C)(C)C)c1 — higher, 68.7 ± 8.1
- CN(C)CC[C@H](CSc1ccccc1)Nc1ccc(S(=O)(=O)NC(=O)c2ccc(N3CCN(Cc4ccccc4-c4ccc(Cl)cc4)CC3)cc2)cc1[N+](=O)[O-] [ABT737] — higher, 88.2 ± 4.7
- O=P1(N(CCCl)CCCl)NCCCO1 (stereo not given) [Cyclophosphamide] — higher, 93.6 ± 5.8
- CCOC(=O)[C@@]1(CCCCCCOc2ccc(Cl)cc2)CO1 [Etomoxir] — higher, 107 ± 19
- Cc1ccc(Nc2nccc(N(C)c3ccc4c(C)n(C)nc4c3)n2)cc1S(N)(=O)=O [Pazopanib] — higher, 95 ± 15
- CC(C)C[C@H](NC(=O)[C@H](CCc1ccccc1)NC(=O)CN1CCOCC1)C(=O)N[C@@H](Cc1ccccc1)C(=O)N[C@@H](CC(C)C)C(=O)[C@@]1(C)CO1 [Carfilzomib] — lower, 4.65 ± 0.23
- N.N.[Cl][Pt][Cl] [Cisplatin] — higher, 115 ± 13
- Cc1cc2c(C(C)C)c(O)c(O)c(C=O)c2c(O)c1-c1c(C)cc2c(C(C)C)c(O)c(O)c(C=O)c2c1O [Gossypol] — higher, 107.2 ± 0.47
- COc1cccc2c1C(=O)c1c(O)c3c(c(O)c1C2=O)C[C@@](O)(C(=O)CO)C[C@@H]3O[C@H]1C[C@H](N)[C@H](O)[C@H](C)O1 [Doxorubicin] — lower, 17.2 ± 3.1
- CCC(C)SSc1ncc[nH]1 (stereo not given) [PX12] — higher, 93.6 ± 8.6
- CC(=O)Nc1nc(C)c(S(=O)(=O)Nc2ccc(C(O)(C(F)(F)F)C(F)(F)F)cc2)s1 [SR1001] — higher, 111.7 ± 0.68
- CN1CCc2c(c3ccccc3n2Cc2ccc(C(=O)NO)cc2)C1 [TubastatinA] — higher, 114 ± 8.2
- CCOc1ccccc1-n1c(C(C)N2CCN(C(=O)COc3ccc(Cl)cc3)CC2)nc2ccccc2c1=O (stereo not given) [Erastin] — higher, 99.2 ± 13
- CN1C(=O)C(Cc2c[nH]c3ccccc23)NC1=S (stereo not given) [Necrostatin1] — higher, 105 ± 2.8
- CCn1c(=O)c2c(nc(/C=C/c3ccc(OC)c(OC)c3)n2C)n(CC)c1=O [Istradefylline] — higher, 93.3 ± 8.3
- COc1ccc(-c2ccc3c(N4CCOCC4)nc(N4C[C@@H](C)O[C@@H](C)C4)nc3n2)cc1CO — higher, 92.1 ± 13
- C[C@]12CC[C@@H]3c4ccc(O)cc4C[C@@H](CCCCCCCCC[S+]([O-])CCCC(F)(F)C(F)(F)F)[C@H]3[C@@H]1CC[C@@H]2O (stereo not given in full) [Fulvestrant] — higher, 103 ± 6.4
- COC(=O)Nc1nc2cc(C(=O)c3ccccc3)ccc2[nH]1 [Mebendazole] — lower, 18.2 ± 7.5
- O=C(NOCC(O)CO)c1cc(Br)c(F)c(F)c1Nc1ccc(I)cc1F (stereo not given) — higher, 81.8 ± 3.8
- OCc1ccc(-c2ccc(-c3ccc(CO)s3)o2)s1 — higher, 110 ± 18
- CC(=O)Nc1cccc(-n2c(=O)n(C3CC3)c(=O)c3c(Nc4ccc(I)cc4F)n(C)c(=O)c(C)c32)c1 [Trametinib] — higher, 79.2 ± 5.8
- C=CCn1c(=O)c2cnc(Nc3ccc(N4CCN(C)CC4)cc3)nc2n1-c1cccc(C(C)(C)O)n1 [MK1775] — within error, 35.3 ± 2.2

From the supplement of paper PMC7661543
